# According to patent US8163732B2, “Tricyclic heteroaryl compounds useful as inhibitors of Janus kinase” (Vertex Pharmaceuticals Incorporated, priority 2005, dated 2012):
# Legend:
# JAK-3 = target: T1, JAK-3 (Homo sapiens, UniProt P52333); assay: JAK-3 inhibition assay; type: biochemical
# T1 sequence (P52333 1-1124): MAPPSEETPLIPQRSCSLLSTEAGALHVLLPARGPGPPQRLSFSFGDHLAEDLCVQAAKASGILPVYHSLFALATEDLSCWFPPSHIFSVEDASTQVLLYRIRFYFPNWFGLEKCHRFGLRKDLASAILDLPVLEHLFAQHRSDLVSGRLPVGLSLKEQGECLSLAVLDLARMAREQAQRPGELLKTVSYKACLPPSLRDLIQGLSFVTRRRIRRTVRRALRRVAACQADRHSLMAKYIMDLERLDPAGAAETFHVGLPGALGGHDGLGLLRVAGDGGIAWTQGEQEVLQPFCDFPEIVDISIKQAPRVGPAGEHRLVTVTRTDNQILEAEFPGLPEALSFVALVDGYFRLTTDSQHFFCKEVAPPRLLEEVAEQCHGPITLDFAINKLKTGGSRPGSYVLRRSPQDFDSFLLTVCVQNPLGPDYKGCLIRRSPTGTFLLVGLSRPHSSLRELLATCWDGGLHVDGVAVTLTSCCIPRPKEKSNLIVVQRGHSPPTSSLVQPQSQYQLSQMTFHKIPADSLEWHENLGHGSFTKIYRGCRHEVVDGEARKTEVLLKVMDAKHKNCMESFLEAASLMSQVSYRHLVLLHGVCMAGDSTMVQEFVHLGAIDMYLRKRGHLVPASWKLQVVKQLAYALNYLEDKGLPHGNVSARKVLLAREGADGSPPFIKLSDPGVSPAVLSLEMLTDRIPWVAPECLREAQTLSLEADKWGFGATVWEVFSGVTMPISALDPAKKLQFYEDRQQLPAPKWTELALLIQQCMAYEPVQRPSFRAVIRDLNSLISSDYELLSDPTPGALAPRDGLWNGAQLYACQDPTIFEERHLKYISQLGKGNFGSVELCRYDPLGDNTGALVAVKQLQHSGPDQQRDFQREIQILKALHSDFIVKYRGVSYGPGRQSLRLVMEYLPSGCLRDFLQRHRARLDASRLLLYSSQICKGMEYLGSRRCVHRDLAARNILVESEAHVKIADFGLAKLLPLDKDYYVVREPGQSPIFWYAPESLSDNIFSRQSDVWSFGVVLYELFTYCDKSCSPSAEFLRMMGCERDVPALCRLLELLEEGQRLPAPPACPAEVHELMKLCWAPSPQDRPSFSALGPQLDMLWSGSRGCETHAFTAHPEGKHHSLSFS
# Method: Compounds were screened for their ability to inhibit JAK using the assay shown below. Reactions were carried out in a kinase buffer containing 100 mM HEPES (pH 7.4), 1 mM DTT, 10 mM MgCl2, 25 mM NaCl, and 0.01% BSA.
# Substrate concentrations in the assay were 5 μM ATP (200 μCi/μmole ATP) and 1 μM poly(Glu)4Tyr. Reactions were carried out at 25° C. and 1 nM JAK-3.
# To each well of a 96 well polycarbonate plate was added 1.5 μL of a candidate JAK-3 inhibitor along with 50 μL of kinase buffer containing 2 μM poly(Glu)4Tyr and 10 μM ATP. This was then mixed and 50 μL of kinase buffer containing 2 nM JAK-3 enzyme was added to start the reaction. After 20 minutes at room temperature (25° C.), the reaction was stopped with 50 μL of 20% trichloroacetic acid (TCA) that also contained 0.4 mM ATP. The entire contents of each well were then transferred to a 96 well glass fiber filter plate using a TomTek Cell Harvester. After washing, 60 μL of scintillation fluid was added and ^33P incorporation detected on a Perkin Elmer TopCount. After removing the mean background values for all of the data points, the data were fit using Prism software to obtain a Ki value (app).
# JAK-2 = JAK-2 (Homo sapiens, UniProt O60674); assay: JAK-2 inhibition assay; type: biochemical
# JAK-2, sequence (O60674 whole entry): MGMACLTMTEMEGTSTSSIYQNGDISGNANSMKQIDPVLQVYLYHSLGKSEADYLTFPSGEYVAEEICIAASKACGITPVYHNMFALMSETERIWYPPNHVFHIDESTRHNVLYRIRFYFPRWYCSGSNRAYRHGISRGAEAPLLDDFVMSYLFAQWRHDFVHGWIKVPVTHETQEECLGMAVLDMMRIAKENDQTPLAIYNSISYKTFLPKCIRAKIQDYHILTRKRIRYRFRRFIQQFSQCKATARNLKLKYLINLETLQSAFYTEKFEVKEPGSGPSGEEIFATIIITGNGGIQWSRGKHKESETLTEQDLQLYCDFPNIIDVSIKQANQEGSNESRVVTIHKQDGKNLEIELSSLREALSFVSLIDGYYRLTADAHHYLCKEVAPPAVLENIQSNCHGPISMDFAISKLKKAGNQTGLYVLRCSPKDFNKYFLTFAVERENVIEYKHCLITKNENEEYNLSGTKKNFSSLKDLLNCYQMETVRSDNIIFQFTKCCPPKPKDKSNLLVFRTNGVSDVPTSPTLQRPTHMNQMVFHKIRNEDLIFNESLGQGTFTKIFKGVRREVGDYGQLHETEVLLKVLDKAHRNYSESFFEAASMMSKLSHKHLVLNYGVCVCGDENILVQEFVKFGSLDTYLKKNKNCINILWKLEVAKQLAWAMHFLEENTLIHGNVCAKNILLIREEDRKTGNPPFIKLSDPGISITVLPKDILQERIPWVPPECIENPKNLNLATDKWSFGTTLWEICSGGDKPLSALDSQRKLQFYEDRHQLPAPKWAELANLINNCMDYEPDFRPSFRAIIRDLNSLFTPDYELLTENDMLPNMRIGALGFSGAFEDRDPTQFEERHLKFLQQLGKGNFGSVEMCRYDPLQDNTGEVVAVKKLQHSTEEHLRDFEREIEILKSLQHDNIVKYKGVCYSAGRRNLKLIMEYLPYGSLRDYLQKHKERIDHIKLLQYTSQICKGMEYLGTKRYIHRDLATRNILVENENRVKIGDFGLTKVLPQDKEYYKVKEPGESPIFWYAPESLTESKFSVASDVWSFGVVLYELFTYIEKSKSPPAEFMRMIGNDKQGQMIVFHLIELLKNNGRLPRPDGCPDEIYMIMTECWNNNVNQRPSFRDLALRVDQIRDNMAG
SMILES,Ki (JAK-3),Ki (JAK-2)
c1ccc(COCC2Nc3ccccc3-c3ccnc4[nH]cc2c34)cc1 (stereo not drawn) [Compound 1],250 to 2500 nM,–
c1ccc(COCC2Nc3ccccc3-c3ncnc4[nH]cc2c34)cc1 (stereo not drawn) [Compound 2],> 2500 nM,> 2500 nM
c1ccc(C2Nc3ccccc3-c3ncnc4[nH]cc2c34)cc1 (stereo not drawn) [Compound 3],250 to 2500 nM,> 2500 nM
FC(F)(F)C1Nc2ccccc2-c2ncnc3[nH]cc1c23 (stereo not drawn) [Compound 4],> 2500 nM,> 2500 nM
CC(C)(C)C1Nc2ccccc2-c2ccnc3[nH]cc1c23 (stereo not drawn) [Compound 6],250 to 2500 nM,–
CCOC(=O)C1Nc2ccccc2-c2ccnc3[nH]cc1c23 (stereo not drawn) [Compound 8],250 to 2500 nM,250 to 2500 nM
c1ccc2c(c1)NC(C1CCCCC1)c1c[nH]c3nccc-2c13 (stereo not drawn) [Compound 10],> 2500 nM,–
c1ccc2c(c1)NCc1c[nH]c3nccc-2c13 [Compound 13],250 to 2500 nM,250 to 2500 nM
CCC1Nc2ccccc2-c2ccnc3[nH]cc1c23 (stereo not drawn) [Compound 14],250 to 2500 nM,–
CC(C)CC1Nc2ccccc2-c2ccnc3[nH]cc1c23 (stereo not drawn) [Compound 15],> 2500 nM,–
CC(C)C1Nc2ccccc2-c2ccnc3[nH]cc1c23 (stereo not drawn) [Compound 16],> 2500 nM,–
Fc1cccc(F)c1C1Nc2ccccc2-c2ccnc3[nH]cc1c23 (stereo not drawn) [Compound 18],250 to 2500 nM,< 250 nM
FC(F)(F)c1ccccc1C1Nc2ccccc2-c2ccnc3[nH]cc1c23 (stereo not drawn) [Compound 19],250 to 2500 nM,250 to 2500 nM
c1ccc(CC2Nc3ccccc3-c3ccnc4[nH]cc2c34)cc1 (stereo not drawn) [Compound 24],250 to 2500 nM,–
Fc1ccc(C2Nc3ccccc3-c3ccnc4[nH]cc2c34)c(F)c1F (stereo not drawn) [Compound 29],250 to 2500 nM,–
OCCCCC1Nc2ccccc2-c2ccnc3[nH]cc1c23 (stereo not drawn) [Compound 59],> 2500 nM,–
Oc1ccc(C2Nc3ccccc3-c3ccnc4[nH]cc2c34)cc1F (stereo not drawn) [Compound 105],≤ 250 nM,–
Oc1ccc(C2Nc3ccccc3-c3ccnc4[nH]cc2c34)c(F)c1 (stereo not drawn) [Compound 107],≤ 250 nM,–
Oc1ccc(C2Nc3ccccc3-c3ncnc4[nH]cc2c34)cc1F (stereo not drawn) [Compound 116],≤ 250 nM,–
Oc1ccc(C2Nc3ccccc3-c3ncnc4[nH]cc2c34)c(F)c1 (stereo not drawn) [Compound 118],≤ 250 nM,–

# Now from value to compound:
Ki (JAK-3),Ki (JAK-2),SMILES
250 to 2500 nM,–,c1ccc(C2Nc3ccccc3-c3ccnc4[nH]cc2c34)cc1 (stereo not drawn) [Compound 5]
250 to 2500 nM,< 250 nM,Fc1ccccc1C1Nc2ccccc2-c2ccnc3[nH]cc1c23 (stereo not drawn) [Compound 7]
250 to 2500 nM,250 to 2500 nM,COc1ccccc1C1Nc2ccccc2-c2ccnc3[nH]cc1c23 (stereo not drawn) [Compound 9]
250 to 2500 nM,< 250 nM,Fc1cccc(C2Nc3ccccc3-c3ccnc4[nH]cc2c34)c1 (stereo not drawn) [Compound 11]
250 to 2500 nM,250 to 2500 nM,Fc1ccc(C2Nc3ccccc3-c3ccnc4[nH]cc2c34)cc1 (stereo not drawn) [Compound 12]
250 to 2500 nM,250 to 2500 nM,Clc1ccccc1C1Nc2ccccc2-c2ccnc3[nH]cc1c23 (stereo not drawn) [Compound 17]
≤ 250 nM,–,Oc1ccc(C2Nc3ccccc3-c3ccnc4[nH]cc2c34)cc1 (stereo not drawn) [Compound 65]
≤ 250 nM,–,Oc1ccc(C2Nc3ccccc3-c3ccnc4[nH]cc2c34)cc1Br (stereo not drawn) [Compound 77]
> 2500 nM,–,O=C(O)c1ccc(C2Nc3ccccc3-c3ccnc4[nH]cc2c34)cc1 (stereo not drawn) [Compound 88]
> 2500 nM,–,CNC(=O)c1ccc(C2Nc3ccccc3-c3ccnc4[nH]cc2c34)cc1 (stereo not drawn) [Compound 91]
250 to 2500 nM,–,COC(=O)C1(c2ccc([N+](=O)[O-])cc2)Nc2ccccc2-c2ccnc3[nH]cc1c23 (stereo not drawn) [Compound 98]
≤ 250 nM,–,COC(=O)C1(c2ccc(O)cc2)Nc2ccccc2-c2ccnc3[nH]cc1c23 (stereo not drawn) [Compound 103]
> 2500 nM,–,CS(=O)(=O)Nc1ccc(C2Nc3ccccc3-c3ccnc4[nH]cc2c34)cc1 (stereo not drawn) [Compound 123]
≤ 250 nM,–,O=C1Nc2ccccc2-c2ccnc3[nH]cc(c23)C1c1ccc(O)cc1 (stereo not drawn) [Compound 125]
≤ 250 nM,–,OCc1ccc(C2Nc3ccccc3-c3ccnc4[nH]cc2c34)cc1 (stereo not drawn) [Compound 154]
250 to 2500 nM,–,COC(=O)CC1Nc2ccccc2-c2ccnc3[nH]cc1c23 (stereo not drawn) [Compound 156]
